Measured values from patent US20250388602A1 (Genase Therapeutics B.V., priority 2022, published 2025).
Like-named read-outs stand apart in the source and are kept apart here.

Legend:
[1] = system: MOLM-13 cells; test: MOLM-13 cell viability (Assay B), Cell Titer-Glo; type: cell-based; conditions: Homo sapiens, read-out: IC50 MOLM13 inhibition activity
Experimental: MOLM-13 cells (an acute myeloid leukemia cell line) were plated in RPMI supplied with 10% FBS and 1% Pen/Strep in 384-well plates at 1,000 cells per well on day 0. On day 1, treatment of the cells with compound (concentration range 10E-5 and 6E-12 M) was initiated in the presence or absence of 100 μM uridine. After 72 hours incubation of the cells with or without test compound, the number of viable cells per well was assessed by Cell Titer-Glo Luminescent Cell Viability Assay (Promega, Madison, WI, USA). […] Each condition was tested in duplicate and the potency of test compounds was determined from two independent experiments.

[2] = target: recombinant human DHODH (Homo sapiens (Human), UniProt Q02127); test: DHODH enzyme assay (Assay A), DCIP absorbance; type: biochemical
recombinant human DHODH, sequence (Q02127 whole entry): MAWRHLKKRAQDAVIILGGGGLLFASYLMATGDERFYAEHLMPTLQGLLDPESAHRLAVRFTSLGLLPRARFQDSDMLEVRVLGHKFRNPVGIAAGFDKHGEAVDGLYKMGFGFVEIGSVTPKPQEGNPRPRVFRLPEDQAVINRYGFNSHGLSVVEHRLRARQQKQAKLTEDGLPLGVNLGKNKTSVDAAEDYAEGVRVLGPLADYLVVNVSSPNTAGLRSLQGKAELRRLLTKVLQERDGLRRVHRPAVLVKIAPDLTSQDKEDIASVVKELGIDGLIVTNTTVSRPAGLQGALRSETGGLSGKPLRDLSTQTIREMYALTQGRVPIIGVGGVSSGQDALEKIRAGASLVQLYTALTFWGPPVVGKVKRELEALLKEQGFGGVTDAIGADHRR
Experimental: Inhibition of human dihydroorotate dehydrogenase (DHODH) by example compounds as described herein was determined using one of two assays as described below.
DHODH enzyme assays were performed with 6 nM recombinant human DHODH (purified essentially as described by Walse et al., Biochemistry, 47, 8929-8936 (2008)). The reaction mixture consisted of 1 mM DL-dihydroorotic acid (#D7003, Sigma-Aldrich), 100 μM 3,4-dimethoxy-5-methyl-p-benzoquinone (#D9150, Sigma-Aldrich), and 100 μM 2,6-dichlorophenolindophenol sodium salt (DCIP) (#D1878, Sigma-Aldrich) in enzyme buffer (50 mM Tris-HCl pH 8.0, 0.1% Triton X-100, 150 mM KCl). A stock solution of 20 mM DCIP was prepared in enzyme buffer and filtered through Whatman paper just before use. Reactions were performed in a total volume of 100 μL, consisting of 1 μL of compound, 49 μL of enzyme and 50 μL of reaction mixture. Loss in absorbance by chromogen DCIP was measured at 595 nm following a 70 minute incubation at 32° C.

[3] = MOLM-13, 72 hours, bins ≥10 nM-<100 nM and <10 nM
[4] = bins ≥10 nM-<100 nM and <10 nM, read-out: IC50 DHODH inhibition activity
[5] = bin ≥1 μM-<10 μM, read-out: IC50 DHODH inhibition activity

**Q.** With `COc1cccc(-n2ncc3c2COC[C@H]3NC(=O)c2cc(C)c(C)cn2)c1Cl` as the molecule, how does the IC50 [1, 3] read?
**A.** 10 to 100 nM

**Q.** Which IC50 [2, 4] does the source give for `CCc1c(C(=O)N[C@@H]2COCc3c2cnn3-c2cccc(OC)c2Cl)n[nH]c1C` [Ex-26, (S)—N-(1-(2-chloro-3-methoxyphenyl)-1,4,5,7-tetrahydropyrano[3,4-c]pyrazol-4-yl)-4-ethyl-5-methyl-1H-pyrazole-3-carboxamide] here?
**A.** < 10 nM

**Q.** And the IC50 [1, 3]?
**A.** < 10 nM

**Q.** What does the source list for `CCc1c(C(=O)N[C@@H]2COCc3c2cnn3-c2cccc(C)c2Cl)ncn1C` [Ex-15, (S)—N-(1-(2-chloro-3-methylphenyl)-1,4,5,7-tetrahydropyrano[3,4-c]pyrazol-4-yl)-5-ethyl-1-methyl-1H-imidazole-4-carboxamide]?
**A.** IC50 [2, 4]: < 10 nM; IC50 [1, 3]: < 10 nM

**Q.** Which IC50 [2, 5] does the source give for `CS(=O)(=O)c1cccc(-n2ncc3c2COC[C@H]3NC(=O)c2ncn3c2CCCC3)c1` [Ex-49, (S)—N-(1-(3-(methylsulfonyl)phenyl)-1,4,5,7-tetrahydropyrano[3,4-c]pyrazol-4-yl)-5,6,7,8-tetrahydroimidazo[1,5-a]pyridine-1-carboxamide] here?
**A.** 1000 to 10000 nM

**Q.** With `COc1ccc(F)c(-n2ncc3c2COC[C@H]3NC(=O)c2cc(C)c(C)cn2)c1Cl` [Ex-33, (S)—N-(1-(2-chloro-6-fluoro-3-methoxyphenyl)-1,4,5,7-tetrahydropyrano[3,4-c]pyrazol-4-yl)-4,5-dimethylpicolinamide] as the molecule, how does the IC50 [2, 4] read?
**A.** 10 to 100 nM

**Q.** And the IC50 [1, 3]?
**A.** 10 to 100 nM

**Q.** With `Cc1cccc(-n2ncc3c2COC[C@H]3NC(=O)c2n[nH]c3c2CCCC3)c1Cl` [Ex-17, (S)—N-(1-(2-chloro-3-methylphenyl)-1,4,5,7-tetrahydropyrano[3,4-c]pyrazol-4-yl)-4,5,6,7-tetrahydro-1H-indazole-3-carboxamide] as the molecule, how does the IC50 [2, 4] read?
**A.** 10 to 100 nM

**Q.** What about the IC50 [1, 3] of the same molecule?
**A.** 10 to 100 nM

**Q.** For `COc1cccc(Cl)c1-n1ncc2c1COC[C@H]2NC(=O)c1ncn2c1CCCC2` [Ex-60, (S)—N-(1-(2-chloro-6-methoxyphenyl)-1,4,5,7-tetrahydropyrano[3,4-c]pyrazol-4-yl)-5,6,7,8-tetrahydroimidazo[1,5-a]pyridine-1-carboxamide], which IC50 [2, 4] is on record?
**A.** 10 to 100 nM

**Q.** What about the IC50 [1, 3] of the same molecule?
**A.** 10 to 100 nM

**Q.** `COc1ccc(F)c(-n2ncc3c2COC[C@H]3NC(=O)c2n[nH]c3c2CCCC3)c1Cl` [Ex-30, (S)—N-(1-(2-chloro-6-fluoro-3-methoxyphenyl)-1,4,5,7-tetrahydropyrano[3,4-c]pyrazol-4-yl)-4,5,6,7-tetrahydro-1H-indazole-3-carboxamide] was tested. Which IC50 [2, 4] did it give?
**A.** 10 to 100 nM

**Q.** What about the IC50 [1, 3] of the same molecule?
**A.** < 10 nM

**Q.** Which IC50 [2, 5] does the source give for `O=C(N[C@H]1COCc2c1cnn2-c1ccccc1F)c1ncn2c1CCCC2` (single isomer, unassigned) [Ex-2] here?
**A.** 1000 to 10000 nM

**Q.** What does the source list for `Cc1cccc(Cl)c1-n1ncc2c1COC[C@H]2NC(=O)c1noc2c1CCCC2` [Ex-38, (S)—N-(1-(2-chloro-6-methylphenyl)-1,4,5,7-tetrahydropyrano[3,4-c]pyrazol-4-yl)-4,5,6,7-tetrahydrobenzo[d]isoxazole-3-carboxamide]?
**A.** IC50 [2, 4]: < 10 nM; IC50 [1, 3]: < 10 nM

**Q.** `CCc1c(C(=O)N[C@@H]2COCc3c2cnn3-c2c(C)cccc2Cl)ncn1C` [Ex-35, (S)—N-(1-(2-chloro-6-methylphenyl)-1,4,5,7-tetrahydropyrano[3,4-c]pyrazol-4-yl)-5-ethyl-1-methyl-1H-imidazole-4-carboxamide] was tested. Which IC50 [2, 4] did it give?
**A.** < 10 nM

**Q.** What about the IC50 [1, 3] of the same molecule?
**A.** < 10 nM

**Q.** For `COc1cccc(-n2ncc3c2COC[C@H]3NC(=O)c2noc3c2CCCC3)c1Cl` [Ex-25, (S)—N-(1-(2-chloro-3-methoxyphenyl)-1,4,5,7-tetrahydropyrano[3,4-c]pyrazol-4-yl)-4,5,6,7-tetrahydrobenzo[d]isoxazole-3-carboxamide], which IC50 [2, 4] is on record?
**A.** 10 to 100 nM

**Q.** And the IC50 [1, 3]?
**A.** < 10 nM

**Q.** With `O=C(N[C@H]1COCc2c1cnn2-c1ccccc1F)c1ncc2n1CCCC2` (single isomer, unassigned) [Ex-5] as the molecule, how does the IC50 [2, 5] read?
**A.** 1000 to 10000 nM

**Q.** `CN(C)C(=O)COc1cccc(-n2ncc3c2COC[C@H]3NC(=O)c2ncn3c2CCCC3)c1Cl` [Ex-64, (S)—N-(1-(2-chloro-3-(2-(dimethylamino)-2-oxoethoxy)phenyl)-1,4,5,7-tetrahydropyrano[3,4-c]pyrazol-4-yl)-5,6,7,8-tetrahydroimidazo[1,5-a]pyridine-1-carboxamide] was tested. Which IC50 [2] did it give?
**A.** 10 to 100 nM

**Q.** What about the IC50 [1, 3] of the same molecule?
**A.** 10 to 100 nM

**Q.** For `O=C(N[C@@H]1COCc2c1cnn2-c1cccc(C(F)(F)F)c1Cl)c1ncn2c1CCCC2` [Ex-50, (S)—N-(1-(2-chloro-3-(trifluoromethyl)phenyl)-1,4,5,7-tetrahydropyrano[3,4-c]pyrazol-4-yl)-5,6,7,8-tetrahydroimidazo[1,5-a]pyridine-1-carboxamide], which IC50 [2, 4] is on record?
**A.** 10 to 100 nM

**Q.** And the IC50 [1, 3]?
**A.** < 10 nM

**Q.** Which results are given for `Cc1cccc(Cl)c1-n1ncc2c1COC[C@H]2NC(=O)c1ncc2n1CCCC2` [Ex-36, (S)—N-(1-(2-chloro-6-methylphenyl)-1,4,5,7-tetrahydropyrano[3,4-c]pyrazol-4-yl)-5,6,7,8-tetrahydroimidazo[1,5-a]pyridine-3-carboxamide]?
**A.** IC50 [2, 4]: < 10 nM; IC50 [1, 3]: < 10 nM

**Q.** How did the IC50 [2] turn out when `CN(C)CCOc1cccc(-n2ncc3c2COC[C@H]3NC(=O)c2ncn3c2CCCC3)c1Cl` [Ex-63, (S)—N-(1-(2-chloro-3-(2-(dimethylamino)ethoxy)phenyl)-1,4,5,7-tetrahydropyrano[3,4-c]pyrazol-4-yl)-5,6,7,8-tetrahydroimidazo[1,5-a]pyridine-1-carboxamide] was run?
**A.** 10 to 100 nM

**Q.** With `COCCOc1cccc(-n2ncc3c2COC[C@H]3NC(=O)c2ncn3c2CCCC3)c1Cl` [Ex-67, (S)—N-(1-(2-chloro-3-(2-methoxyethoxy)phenyl)-1,4,5,7-tetrahydropyrano[3,4-c]pyrazol-4-yl)-5,6,7,8-tetrahydroimidazo[1,5-a]pyridine-1-carboxamide] as the molecule, how does the IC50 ([2]; read-out: IC50 DHODH inhibition activity) read?
**A.** < 10 nM

**Q.** What about the IC50 [1, 3] of the same molecule?
**A.** < 10 nM

**Q.** With `O=C(N[C@H]1COCc2c1cnn2-c1c(Cl)cccc1Cl)c1ncn2c1CCCC2` (single isomer, unassigned) [Ex-12] as the molecule, how does the IC50 [1, 3] read?
**A.** 10 to 100 nM

**Q.** What does the source list for `COc1cccc(-n2ncc3c2COC[C@H]3NC(=O)c2n[nH]c3c2CCCC3)c1Cl` [Ex-24, (S)—N-(1-(2-chloro-3-methoxyphenyl)-1,4,5,7-tetrahydropyrano[3,4-c]pyrazol-4-yl)-4,5,6,7-tetrahydro-1H-indazole-3-carboxamide]?
**A.** IC50 [2, 4]: 10 to 100 nM; IC50 [1, 3]: < 10 nM

**Q.** Which IC50 [2, 4] does the source give for `COc1cccc(-n2ncc3c2COC[C@H]3NC(=O)c2ncn3c2CCCC3)c1Cl` [Ex-21, (S)—N-(1-(2-chloro-3-methoxyphenyl)-1,4,5,7-tetrahydropyrano[3,4-c]pyrazol-4-yl)-5,6,7,8-tetrahydroimidazo[1,5-a]pyridine-1-carboxamide] here?
**A.** < 10 nM

**Q.** And the IC50 ([1]; MOLM-13, 72 h)?
**A.** < 10 nM

**Q.** Which results are given for `CCc1c(C(=O)N[C@@H]2COCc3c2cnn3-c2cccc(OC)c2Cl)ncn1C` [Ex-22, (S)—N-(1-(2-chloro-3-methoxyphenyl)-1,4,5,7-tetrahydropyrano[3,4-c]pyrazol-4-yl)-5-ethyl-1-methyl-1H-imidazole-4-carboxamide]?
**A.** IC50 [2, 4]: < 10 nM; IC50 [1, 3]: < 10 nM

**Q.** With `CCc1c(C(=O)N[C@@H]2COCc3c2cnn3-c2cccc(C)c2Cl)n[nH]c1C` [Ex-19, (S)—N-(1-(2-chloro-3-methylphenyl)-1,4,5,7-tetrahydropyrano[3,4-c]pyrazol-4-yl)-4-ethyl-5-methyl-1H-pyrazole-3-carboxamide] as the molecule, how does the IC50 [2, 4] read?
**A.** 10 to 100 nM

**Q.** And the IC50 [1, 3]?
**A.** 10 to 100 nM

**Q.** What does the source list for `CCc1c(C(=O)N[C@@H]2COCc3c2cnn3-c2c(C)cccc2Cl)n[nH]c1C` [Ex-39, (S)—N-(1-(2-chloro-6-methylphenyl)-1,4,5,7-tetrahydropyrano[3,4-c]pyrazol-4-yl)-4-ethyl-5-methyl-1H-pyrazole-3-carboxamide]?
**A.** IC50 [2, 4]: 10 to 100 nM; IC50 ([1]; MOLM-13, 72 h): 10 to 100 nM

**Q.** Which IC50 [2] does the source give for `CNC(=O)COc1cccc(-n2ncc3c2COC[C@H]3NC(=O)c2ncn3c2CCCC3)c1Cl` [Ex-65, (S)—N-(1-(2-chloro-3-(2-(methylamino)-2-oxoethoxy)phenyl)-1,4,5,7-tetrahydropyrano[3,4-c]pyrazol-4-yl)-5,6,7,8-tetrahydroimidazo[1,5-a]pyridine-1-carboxamide] here?
**A.** 10 to 100 nM

**Q.** How did the IC50 [2] turn out when `CC(=O)NCCOc1cccc(-n2ncc3c2COC[C@H]3NC(=O)c2ncn3c2CCCC3)c1Cl` [Ex-66, (S)—N-(1-(3-(2-acetamidoethoxy)-2-chlorophenyl)-1,4,5,7-tetrahydropyrano[3,4-c]pyrazol-4-yl)-5,6,7,8-tetrahydroimidazo[1,5-a]pyridine-1-carboxamide] was run?
**A.** 10 to 100 nM

**Q.** How did the IC50 [1, 3] turn out when `Cc1cnc(C(=O)N[C@@H]2COCc3c2cnn3-c2c(C)cccc2Cl)cc1C` [Ex-40, (S)—N-(1-(2-chloro-6-methylphenyl)-1,4,5,7-tetrahydropyrano[3,4-c]pyrazol-4-yl)-4,5-dimethylpicolinamide] was run?
**A.** 10 to 100 nM

**Q.** `CN(C)C(=O)c1cccc(-n2ncc3c2COC[C@H]3NC(=O)c2ncn3c2CCCC3)c1Cl` [Ex-70, (S)—N-(1-(2-chloro-3-(dimethylcarbamoyl)phenyl)-1,4,5,7-tetrahydropyrano[3,4-c]pyrazol-4-yl)-5,6,7,8-tetrahydroimidazo[1,5-a]pyridine-1-carboxamide] was tested. Which IC50 ([1]; MOLM-13, 72 h) did it give?
**A.** 10 to 100 nM
